Results taken from patent US9618513B2, “Compositions and methods for detecting and treating colorectal cancer” (The Regents of the University of Michigan, priority 2014, dated 2017).

Experiments:
Format in all cases: cell-based, human
[1] = test system: primary colon cancer cell line SBCA; assay: Proliferation of primary colon cancer cell line SBCA
Protocol: FIG. 21A-E A. Dot1L/H3K79me2 inhibitor EZP004777 (10 uM) had no effect on SUZ12 expression but reduce Sox2. B. EZP004777 had no effect on primary colon cancer cell line SBCA. C. EZH2 inhibitor DZNep reduced SBCA cell proliferation. D. SUZ12 knockdown reduced H3K27m3 level. E. Effect of I1-22 on tumor sphere assay was analyzed in shEZH2, shSUZ12 and Dznep treated cells.
Three primary colon cancer cell lines (SB, WR, JR) were established from fresh colon tissues. These primary colon cancer cells and DLD1 (ATCC) were studied. Colon cancer cells were treated with recombinant IL-22 (R&D) for different time points. The EZH2 inhibitor DZNep was added in conventional or sphere culture (see, e.g., Kryczek, I., et al., (2012) International journal of cancer 130, 29-39). Tumor cell sphere formation and gene expression were examined (see, e.g., Kryczek, I., et al., (2012) International journal of cancer 130, 29-39).

[2] = test system: SUZ12, Sox2; assay: SUZ12 and Sox2 expression after DOT1L/H3K79me2 inhibitor (FIG. 21A); conditions: 10 uM
[3] = test system: cyclin-dependent kinase inhibitors, cyclins and CDK4 in DLD-1; assay: Cell cycle gene expression by real-time PCR
Source text: A. GSEA analysis identifies proliferation pathways have positive correlation with IL-22. B. Cell proliferation maker Ki67 was detected by FACS. C. H^3 Thymidine Incorporation was used to detect the function of IL-22 in cell proliferation. D. Cell number was counted after stimulated with IL-22. E. Cells isolated from colon cancer tissue (Tumor cells and Leukocytes) were stimulated with a-CD3 and […] for 3 days, and supernatant mixed with or without anti-IL-22 antibody was co-cultured with DLD1 cells for 24 h to test cell proliferation. F. Cell cyclin-dependent kinase and kinase inhibitors were analyzed by Real-Time PCR.
The identification of target genes for IL-22 is essential for the determination of the mechanism by which it promotes proliferation in colon cancer cells. As such, the relative mRNA levels in DLD-1 colon cancer cell line was examined by real time quantitative PCR. As expected, IL-22 reduced the expression of the cyclin-dependent kinase inhibitors: p16 (CDKN2A), p18 (CDKN2C), p19 (CDKN2D), p21 (CDKN1A), p27 (CDKN1B), p53 and p57 (CDKN1C).
The mRNAs were quantified by real-time RT-PCR. SYBR Green Master Mix was used to detect fluorescence. Relative expression was calculated according to the Ct value with normalization to GAPDH.

[4] = test system: colon cancer cells; assay: Apoptosis by Annexin V FACS
Protocol: FIG. 20A-D A. Realtime PCR was used to detected the mRNA level of p53, p21, CCNE1 after stimulated with IL-22 in primary colon cancer cell lines. B. The effect of IL-22 on colon cancer cell apoptosis was analyzed by Annexin V using FACS. C.D The effect of IL-22 on 5-Fu induced apoptosis was also analyzed by Annexin V.

[5] = test system: H3K27me3 in the promoter of p16 and p18; assay: H3K27me3 ChIP at p16 and p18 promoters; conditions: after IL-22 stimulation
Protocol: A, C. Cell proliferation was analyzed using H^3 Thymidine Incorporation. B. The level of total H3K79m2 and H3K27me3 was measured by Western Blot. D. PcG proteins of EZH2, EED, SUZ12 was increased with IL-22(20 ng/ml) treatment. E. EZH2, SUZ12 and EED was detected by Western Blot after IL-22 treated for 24 h or 48 h. F. EZH2 inhibitor DZNep reduced cell proliferation. G.H. The efficiency of EZH2 and SUZ12 knock down was tested by Western Blot. I.J. Cell proliferation was analyzed using H^3 Thymidine Incorporation after knock down of EZH2 and SUZ12. K.L. Relative expression of cyclin-dependent kinase inhibitors (p16 and p18) in shEZH2, shSUZ12 and Dznep treated cells after IL-22 treatment. M. The level of H3K27me3 in the promoter of p16 and p18 was analyzed by ChIP assay.
ChIP assay was performed according to the protocol (Upstate, Millipore; htt, followed by, p://www.millip, followed by, ore.com/techpublica, followed by, tions/tech1/mcproto407). Crosslinking was performed with 1% formaldehyde or 1% paraformaldehyde for 10 min. To enhance cell lysis, we ran the lysate through a 27 g needle three times and flash froze it in −80° C. Sonication was then performed with the Misonix 4000 water bath sonication unit at 15% amplitude for 10 min. Protein/DNA complex was precipitated by specific antibodies against H3K79me2, H3K27me3 (Millipore), Stat3 (Cell Signaling) and IgG control (Millipore). […]

| Compound | SBCA cell proliferation [1] | SUZ12 expression [2] | Sox2 expression [2] | mRNA levels of cyclin A1, D1, D3, E1, E2 and CDK4 ([3]; DLD-1) | expression of cyclin-dependent kinase inhibitors p16, p18, p19, p21, p27, p53 and p57 ([3]; DLD-1, mRNA) | cell apoptosis ([4]; IL-22 combined with 5-FU) | cell apoptosis ([4]; IL-22 stimulation alone) | level of H3K27m3 in the promoter of p16 and p18 [5] |
| --- | --- | --- | --- | --- | --- | --- | --- | --- |
| CC(C)N(CCCNC(=O)Nc1ccc(C(C)(C)C)cc1)C[C@H]1O[C@@H](n2ccc3c(N)ncnc32)[C@H](O)[C@@H]1O [EPZ004777] | no effect | no effect | reduce | – | – | – | – | – |
| IL-22: recombinant IL-22 (R&D systems), cytokine interleukin-22 | – | – | – | increased | reduced | no change | no change | increased |
